Measurements published in patent publication US20130190407A1, “CALCIUM RECEPTOR-ACTIVE MOLECULES” (NPS Pharmaceuticals, Inc., priority 1991, published 2013).

Experiments:
Type in all cases: cell-based
[1] = biological target: T1, parathyroid cell calcium receptor (Homo sapiens, UniProt P41180); assay: [Ca2+]i (fura-2) in human parathyroid cells; conditions: 20 μM
T1 construct: Dissociated parathyroid cells were prepared from a parathyroid adenoma obtained by surgery; endogenous in cells; host or cells: dissociated primary human parathyroid cells from patients with primary or uremic hyperparathyroidism
T1 sequence (P41180 20-1078): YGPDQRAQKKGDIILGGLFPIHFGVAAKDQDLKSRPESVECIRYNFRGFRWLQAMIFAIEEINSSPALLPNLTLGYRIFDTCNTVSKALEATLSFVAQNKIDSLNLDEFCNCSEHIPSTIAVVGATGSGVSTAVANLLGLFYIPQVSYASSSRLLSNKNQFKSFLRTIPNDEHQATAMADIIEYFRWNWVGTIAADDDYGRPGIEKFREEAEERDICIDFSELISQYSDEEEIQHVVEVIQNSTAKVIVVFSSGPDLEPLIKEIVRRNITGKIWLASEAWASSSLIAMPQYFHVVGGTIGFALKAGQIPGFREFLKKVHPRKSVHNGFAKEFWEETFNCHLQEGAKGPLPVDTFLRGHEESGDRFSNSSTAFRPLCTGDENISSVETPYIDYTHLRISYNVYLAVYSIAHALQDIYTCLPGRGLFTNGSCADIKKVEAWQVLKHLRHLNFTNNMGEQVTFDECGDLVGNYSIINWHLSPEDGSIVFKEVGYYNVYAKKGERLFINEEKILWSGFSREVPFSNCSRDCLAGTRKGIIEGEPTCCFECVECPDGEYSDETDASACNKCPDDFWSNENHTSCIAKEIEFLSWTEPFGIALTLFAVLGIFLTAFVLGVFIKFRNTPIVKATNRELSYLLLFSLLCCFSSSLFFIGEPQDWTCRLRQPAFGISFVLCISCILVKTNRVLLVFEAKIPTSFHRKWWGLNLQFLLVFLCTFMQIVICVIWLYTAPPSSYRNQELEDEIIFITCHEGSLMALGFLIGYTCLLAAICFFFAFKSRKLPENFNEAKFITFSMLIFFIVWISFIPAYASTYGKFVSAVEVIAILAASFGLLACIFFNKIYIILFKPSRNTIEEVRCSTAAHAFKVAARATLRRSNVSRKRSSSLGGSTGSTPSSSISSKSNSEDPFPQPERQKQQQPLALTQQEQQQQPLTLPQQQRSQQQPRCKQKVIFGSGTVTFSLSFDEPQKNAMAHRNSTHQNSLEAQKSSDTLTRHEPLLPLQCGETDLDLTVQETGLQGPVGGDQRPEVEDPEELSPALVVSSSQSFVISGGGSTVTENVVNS
Description: This section describes procedures used to obtain and treat parathyroid cells from calves and humans. […] Human parathyroid glands, were obtained from patients undergoing surgical removal of parathyroid tissue for primary or uremic hyperparathyroidism (uremic HPT), and were treated similarly to bovine tissue.
The cells were then pelleted, resuspended in the same buffer, but lacking the ester, and incubated a further 15 minutes at 37° C. The cells were subsequently washed twice with PCB containing 0.5 mM CaCl2 and 0.5% BSA and maintained at room temperature (about 20° C.) Immediately before use, the cells were diluted five-fold with prewarmed 0.5 mM CaCl2-PCB to obtain a final BSA concentration of 0.1%. The concentration of cells in the cuvette used for fluorescence recording was 1−2×10^6/ml.
The fluorescence of indicator-loaded cells was measured at 37° C. in a spectrofluorimeter (Biomedical Instrumentation Group, University of Pennsylvania, Philadelphia, Pa.) equipped with a thermostated cuvette holder and magnetic stirrer using excitation and emission wavelengths of 340 and 510 nm, respectively. […] To correct the calibration for dye leakage, cells were placed in the cuvette and stirred at 37° C. for 2-3 minutes. The cell suspension was then removed, the cells pelleted, and the supernatant returned to a clean cuvette. […] This estimate was subtracted from the apparent Fmin.

human parathyroid cells = assay: PTH secretion from human parathyroid cells; conditions: concentrations that mobilize intracellular Ca2+
Description: (§1) PTH secretion was measured by first suspending cells in PCB containing 0.5 mM CaCl2 and 0.1% BSA.
For human cells, a commercially available radioimmunoassay kit (INS-PTH; Nichols Institute, Los Angeles, Calif.) which recognizes intact and N-terminal human PTH was used because GW-1 antibody recognizes human PTH poorly.

Bovine parathyroid cells = assay: PTH secretion from bovine parathyroid cells; conditions: concentrations that mobilize intracellular Ca2+
Description: as §1
Counting of samples and data reduction were performed on a Packard Cobra 5005 gamma counter.

C-cell calcium receptor = biological target: T2, C-cell calcium receptor (Rattus norvegicus, UniProt P48442)
T2 construct: cultured cell lines expressing the C-cell phenotype (e.g., rat medullary thyroid carcinoma cells; rMTC 6-23 cells); host or cells: rMTC 6-23 rat medullary thyroid carcinoma cells
T2 sequence (P48442 20-1079): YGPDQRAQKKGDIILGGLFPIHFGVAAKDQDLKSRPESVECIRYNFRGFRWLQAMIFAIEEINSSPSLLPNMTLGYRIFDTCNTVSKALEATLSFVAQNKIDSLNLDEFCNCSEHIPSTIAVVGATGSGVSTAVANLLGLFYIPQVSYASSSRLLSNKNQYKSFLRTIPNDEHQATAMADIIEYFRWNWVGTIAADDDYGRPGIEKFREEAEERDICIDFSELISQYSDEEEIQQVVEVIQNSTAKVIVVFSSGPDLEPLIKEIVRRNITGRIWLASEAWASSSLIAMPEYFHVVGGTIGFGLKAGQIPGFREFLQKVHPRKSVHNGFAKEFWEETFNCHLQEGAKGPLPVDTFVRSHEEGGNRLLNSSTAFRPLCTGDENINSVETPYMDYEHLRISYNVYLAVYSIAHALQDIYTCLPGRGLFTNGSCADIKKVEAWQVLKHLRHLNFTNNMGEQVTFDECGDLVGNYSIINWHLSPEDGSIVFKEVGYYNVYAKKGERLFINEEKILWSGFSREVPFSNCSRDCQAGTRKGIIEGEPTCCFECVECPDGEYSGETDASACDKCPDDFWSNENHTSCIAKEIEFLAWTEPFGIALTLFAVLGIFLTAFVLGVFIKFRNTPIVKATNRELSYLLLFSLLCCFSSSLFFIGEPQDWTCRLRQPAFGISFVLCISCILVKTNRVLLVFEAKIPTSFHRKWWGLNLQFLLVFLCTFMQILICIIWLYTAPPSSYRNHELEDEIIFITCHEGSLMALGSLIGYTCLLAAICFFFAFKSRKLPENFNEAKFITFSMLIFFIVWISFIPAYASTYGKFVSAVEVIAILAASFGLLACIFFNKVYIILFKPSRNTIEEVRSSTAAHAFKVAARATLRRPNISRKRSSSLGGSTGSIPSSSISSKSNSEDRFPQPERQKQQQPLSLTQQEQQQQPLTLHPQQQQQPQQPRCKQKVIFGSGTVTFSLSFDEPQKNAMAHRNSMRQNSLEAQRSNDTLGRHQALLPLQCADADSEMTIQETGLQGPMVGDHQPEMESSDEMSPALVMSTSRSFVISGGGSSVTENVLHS

SMILES: NC[C@@H]1O[C@H](O[C@H]2[C@@H](O)[C@H](O[C@@H]3[C@@H](O)[C@H](N)C[C@H](N)[C@H]3O[C@H]3O[C@H](CN)[C@@H](O)[C@H](O)[C@H]3N)O[C@@H]2CO)[C@H](N)[C@@H](O)[C@@H]1O [Neomycin B, neomycin B]
- increase in [Ca2+]i [1]: large increase
- PTH secretion (human parathyroid cells): inhibited PTH secretion
- PTH secretion (Bovine parathyroid cells): inhibited PTH secretion to the same extent as extracellular Ca^2+
- effect on basal [Ca2+]i (C-cell calcium receptor): without effect
- EC50 C-CELL (C-cell calcium receptor; Table 6, rMTC 6-23 cells): inactive
